Assays:
[1] = Body weight and clinical signs of nude mice bearing H1975-HGF xenografts; assay type: in vivo; settings: H1975-HGF model, n=10/group; unclear whether due to tumor burden or treatment
Procedure: (§1) Female athymic nude mice were used in the studies (n=10/group). Treatment began when SC tumors reached approximately 100 to 300 mm^3 in size. and dosing was initiated according to the treatment plan summarized in Table 2. […] The control group was dosed with vehicle orally daily for 21 days, and the isotype control antibody was dosed twice a week IP for 3 weeks. Mice were monitored for body weight and tumor volume up to Day 95, and were euthanized when individual tumor volume reached 2,000 mm^3 or at study conclusion.
(§2) Relative body weight of individual mice was calculated using the formula: (W/W0)×100, where ‘W’ represents body weight on a particular day, and ‘W0’ represents body weight at initiation of treatment. Body weight was graphically represented as mean % of initial body weight±SEM.
Tumor volume and body weight data were graphically represented using Prism software (GraphPad, version 7). Statistical significance was evaluated for all pairwise comparisons on the last day of the study when at least eight mice remained in each group. Differences between groups were considered significant when p≤0.05. Statistical significance of tumor volume and body weight was calculated using the Linear Mixed-Effects analysis in R software version 3.4.2 (using Janssen's internally developed Shiny application version 3.3), with treatment and time as fixed effects and animal as random effect. […]

advanced NSCLC = experiment: Study 61186372EDI1001, Phase 1 first-in-human dose escalation of JNJ-61186372 as monotherapy and in combination with lazertinib; assay type: in vivo
Text: This study is a first-in-human, open-label, multicenter, 2-part, Phase 1 dose escalation study to evaluate the safety and PK, establish a recommended Phase 2 dose (RP2D) and recommended Phase 2 combination dose (RP2CD) regimen, and to assess the preliminary efficacy of JNJ-61186372 as a monotherapy and in combination with lazertinib in subjects who are≥18 years of age with advanced NSCLC.
Part 1 JNJ-61186372 Monotherapy and Combination Dose Escalations: A traditional 3+3 design will be utilized to determine the MTD (or the maximum administered dose [MAD] if no MTD is defined) and the RP2D regimen(s) for JNJ-61186372 monotherapy, and the RP2CD of the JNJ-61186372 and lazertinib combination, in subjects with advanced NSCLC. The total number of subjects enrolled in each dose escalation will depend on the dose level at which the MTD or MAD is reached, and whether dose cohort expansions are indicated. […]
Anti-tumor activity will be evaluated by clinical responses as per the Response Evaluation Criteria in Solid Tumors (RECIST v1.1) (Eisenhauer et al.., Eur J Cancer 2009;45(2):228-247) The investigator will evaluate sites of disease by radiological imaging, physical examination, and other procedures, as necessary, and all results will be recorded in the case report form (CRF). […]

[2] = tested on: H1975 human lung xenografts; experiment: H1975 human lung carcinoma xenograft model, antitumor activity
Procedure: The animals were fed ad libitum water (reverse osmosis, 1 ppm Cl) and NIH 31 Modified and Irradiated Lab Diet® consisting of 18.0% crude protein, 5.0% crude fat, and 5.0% crude fiber. The mice were housed on irradiated Enrich-o'cobs™ Laboratory Animal Bedding in static microisolators on a 12-hour light cycle at 20-22° C. (68-72° F.) and at 40-60% humidity. All studies complied with the recommendations of the Guide for Care and Use of Laboratory Animals with respect to restraint, husbandry, surgical procedures, feed and fluid regulation, and veterinary care. […]
On the day of implant, the NCI-H1975 cells were harvested during log phase growth and resuspended in phosphate buffered saline (PBS) at a concentration of 5×10^7 cells/mL. Xenografts were initiated by subcutaneously implanting 5×10^6 NCI-H1975 cells per animal (0.1 mL suspension) into the right flank of each test animal and tumors were monitored as their volumes approached the target range of 150-200 mm^3. Fifteen days later, animals were sorted into bins by calculated tumor volumes based on vernier caliper measurements of tumor width and length to the nearest mm. […] Tumor size, in mm3, was calculated using the following formula: Tumor Volume=(w^2×l)/2 where w=width and l=length, in mm, of the tumor. […]

H1975-HGF xenografts = experiment: H1975-HGF human lung carcinoma xenograft model, antitumor activity
Procedure: as §1
Tumor volume data were graphically represented as the mean tumor volume±SEM. Tumor volume was calculated using the formula: tumor volume (mm^3)=(D×d2)/2; where ‘D’ represents the larger diameter, and ‘d’ the smaller diameter of the tumor as determined by caliper measurements.
The % TGI was defined as the difference between mean tumor burden of the treated and control group, calculated as % ΔTGI=([(TVc−TVc0)−(TVt−TVt0)]/(TVc−TVc0))×100 where ‘TVc’ is the mean tumor burden of a given control group, ‘TVc0’ is the mean initial tumor burden of a given control group, ‘TVt’ is the mean tumor burden of the treated group, and ‘TVt0’ is the mean initial tumor burden of the treated group. […]
Survival data was graphed and analyzed using GraphPad Prism 7.04 for Windowswith day 1 as the treatment start date. […]

[3] = Body weight and clinical signs of nude mice bearing H1975 xenografts; settings: for animals euthanized due to negative clinical signs: H1975 model, n=10/group, unclear whether due to tumor burden or treatment; for body weight loss compared to the control group: H1975-xenograft-bearing nude mice, Day 29, 10 mg/kg
Procedure: The mice were housed on irradiated Enrich-o'cobs™ Laboratory Animal Bedding in static microisolators on a 12-hour light cycle at 20-22° C. (68-72° F.) and at 40-60% humidity.
as §1, §2
Tumor volume and body weight data were graphically represented using Prism software (GraphPad, version 7). Statistical significance was evaluated for all pairwise comparisons on the last day of the study when at least eight mice remained in each group. Differences between groups were considered significant when p≤0.05. Statistical significance of tumor volume and body weight was calculated using the Linear Mixed-Effects analysis in R software version 3.4.2 (using Janssen's internally developed Shiny application version 3.3), with treatment and time as fixed effects and animal as random effect. Logarithmic transformation (base 10) was performed if individual longitudinal response trajectories were not linear. The information derived from this model was used to make pairwise treatment comparisons to the control group or between all the treatment groups.

[4] = tested on: EGFR mutation positive (EGFRm+) advanced NSCLC; experiment: Clinical Trial No. NCT03046992, phase I/II lazertinib monotherapy; assay type: in vivo, human; settings: for ORR, (%): T790M+ patients
Text: Clinical Trial No. NCT03046992 was primarily designed to evaluate the safety, tolerability, and efficacy of YH25448 in patients with EGFR mutation positive (EGFRm+) advanced NSCLC with or without asymptomatic brain metastasis who progressed following prior therapy with an EGFR TKIs agent.
Patients with advanced and metastatic NSCLC who had progressed after treatment with EGFR-TKIs with/without asymptomatic brain metastases (BM) were enrolled in an open-label, multicenter, phase I/II study with dose-escalation and expansion cohorts. Lazertinib was administered once daily at doses between 20 to 320 mg in a 21-day cycle. Patients were assessed for safety, tolerability, pharmacokinetics and efficacy. T790M status was confirmed in the dose-expansion cohorts.

[5] = tested on: EGFR Dell9/T790M mutant lung adenocarcinoma; settings: one patient, 40 mg daily, cited from earlier work
[6] = monotherapy, EGFR-mutated NSCLC
[7] = Day 28, as compared to controls, 10 mg/kg

## JNJ-372
[1]
  mice found dead or euthanized due to negative clinical signs: One
Advanced NSCLC; monotherapy FIH dose escalation, through 1400 mg
  DLTs: no DLTs were observed
Advanced NSCLC; [6]
  dose from which clinical activity was demonstrated in the targeted population: 700 mg
[2]; [7]
  TGI: 86%
H1975-HGF xenografts; [7]
  TGI: 70%
[3]
  animals euthanized due to negative clinical signs: One

## C=CC(=O)Nc1cc(Nc2nccc(-c3cn(C)c4ccccc34)n2)c(OC)cc1N(C)CCN(C)C [Osimertinib, osimertinib, reference compound]
[1]
  mice found dead or euthanized due to negative clinical signs: One
[3]
  body weight loss compared to the control group: some transient body weight loss

## C=CC(=O)Nc1cc(Nc2nccc(-n3cc(CN(C)C)c(-c4ccccc4)n3)n2)c(OC)cc1N1CCOCC1 [Lazertinib, N-(5-(4-(4-((dimethylamino)methyl)-3-phenyl-1H-pyrazol-1-yl)pyrimidin-2-ylamino)-4-methoxy-2-morpholinophenyl)acrylamide]
[4]; 20 to 320 mg once daily
  systemic exposure: increased dose-dependently
[4]; 93 T790M+ patients
  ORR: 69%
[4]; 115 patients
  TEAE constipation: 12%
  TEAE decreased appetite: 17%
  TEAE of grade ≥3 hyponatraemia: 2%
  TEAE of grade ≥3 nausea: 2%
  TEAE of grade ≥3 pneumonia: 2%
  TEAE pruritus: 19%
  TEAE rash: 14%
[4]; EGFR T790M+ NSCLC patients, multiple dose levels
  tolerability: well tolerated
[4]; 20 mg QD, 2 evaluable
  ORR, (%): 100%
[4]; 40 mg QD, 25 evaluable
  ORR, (%): 68%
[4]; 80 mg QD, 18 evaluable
  ORR, (%): 61%
[4]; 120 mg QD, 22 evaluable
  ORR, (%): 77%
[4]; 160 mg QD, 18 evaluable
  ORR, (%): 61%
[4]; 240 mg QD, 8 evaluable
  ORR, (%): 75%
[4]; dose-escalation cohort, 38 patients, 20 to 320 mg
  dose-limiting toxicities: No dose-limiting toxicities were observed
[4]; evaluable patients (n=110) at data cut-off, 20 to 320 mg once daily
  objective response rate (ORR): 65%
[4]; monotherapy FIH dose escalation, through 320 mg
  DLTs: no DLTs were observed
[4]; [6]
  dose from which clinical activity was demonstrated in the targeted population: 240 mg
[4]; patients with BM (n=12)
  intracranial ORR: 50%
[5]; tumor assessment after 6 weeks
  extracranial tumor reduction: 12.7%
  intracranial tumor reduction: 49.3%
  overall tumor reduction: 25.9%
[5]
  adverse events: without significant adverse events
[2]; n=10/group, mice with CR
  CR (complete tumor regression): 1 of 10
H1975-HGF xenografts; n=10/group, mice with CR
  CR (complete tumor regression): 2 of 10
[3]
  body weight loss compared to the control group: some transient body weight loss
  animals euthanized due to negative clinical signs: One

— patent publication US12599606B2, “Therapies with 3rd generation EGFR tyrosine kinase inhibitors” (Janssen Biotech, Inc., priority 2019, dated 2026)
